The subject of test [1] is B-Raf(V600E)-Ba/F3 cell line. The experiment in a line: B-Raf(V600E)-Ba/F3 proliferation assay (Cell-Titer-Glo). The following applies: 384-well, called historical data, SD in parentheses (n=4-6). Format: cell-based. How it is done: The B-Raf(V600E)-Ba/F3 cell line was generously provided by Markus Warmuth (GNF). Ba/F3 cells were counted and diluted to a final concentration of 75,000 cells/ml in RPMI media and 50μl/well were plated into 384-well white solid bottom plates. 50nl of a 10mM compound stock in DMSO were pintool transferred followed by a 48h incubation time at 37°C for 48h. Finally, 25μl Cell-Titer-Glo (Promega) detection reagent was added each and luminescence read were taken on a […] (Molecular Devices Corp.) reader.

The target in test [2] is T1, B-Raf(V600E) (Homo sapiens, UniProt P15056, V600E).
T1 construct: Full-length B-Raf wild-type (WT) and B-Raf(V600E) (NM_004333) cDNAs were subcloned from pcDNA3.1 into pcDNA5TO; expressed in transfected cells
Description: B-Raf(V600E)/cSTKpep-3 cellular TR-FRET assay (double stable HEK293 T-Rex cells). Format: cell-based. Particulars: cSTKpep-3 substrate, ~2h compound treatment, SD in parentheses (n=4-6); for IC50: 384-well.

Another test concerns the target T2, AKT (Homo sapiens, UniProt P31749).
T2 construct: expressed in transfected cells; host or cells: HEK293 (transient co-transfection)
The experiment in a line: AKT/cSTKpep-3 cellular TR-FRET assay (transient, HEK293). Format: cell-based. The following applies: Fig. 7C; comparable potencies in both assays.

Test [3] deals with T1, B-Raf(V600E). Description: B-Raf(V600E)/MEK1(WT) cellular TR-FRET assay (double stable HEK293 T-Rex cells). Format: cell-based. Particulars: MEK(WT) substrate, ~2h compound treatment, SD in parentheses (n=4-6); for IC50: 384-well.
In test [4] the test system is AKT activation (Ser473 phosphorylation). The experiment in a line: p-AKT(Ser473) cellular TR-FRET assay with His-tagged AKT (HEK293). Format: cell-based, human. Particulars: for observed potency (concentration range), AKT phosphorylation assay: Fig. 7B, comparable potencies in both assays.
The target in test [5] is T1, B-Raf(V600E). Description: B-Raf(V600E)/MEK1(KD) cellular TR-FRET assay (double stable HEK293 T-Rex cells). Format: cell-based. Particulars: for IC50: B-Raf(V600E) TR-FRET, kinase-inactive MEK(KD) substrate, 384-well, ~2h compound treatment, SD in parentheses (n=4-6).
The test system of a further test is CamK2δ. The experiment in a line: CamK2δ/cSTKpep-1 cellular TR-FRET assay (transient, HEK 293). Format: cell-based. Particulars: 5min ionomycin treatment (1µM). Here is the method:
HEK293 cells were transfected using Fugene 6 (Roche) at a density of 8000 cells/well in 384-well plates and a final transfection volume of 30μl. The amounts of kinase and substrate plasmids per well varied for each experiment and are specified in the figure legends. Cell lysis and detection of phosphorylated or total substrate levels was performed 48h post transfection by addition of 30μl detection buffer (50 mM Hepes pH 7.2, 0.1% BSA, 20mM EDTA, 0.8M KF, and 2% Triton) containing anti-FLAG XL665 (2ng/ul) and Eu-pSTK (0.18ng/μl) or Eu-pMEK1 (0.24ng/μl). For the relative determination of total substrate levels 30μl detection buffer was added per well containing anti-FLAG XL665 (2ng/μl) and Eu-cMyc (0.3ng/μl). Plates were incubated for 3-6h at room temperature and TR-FRET readings taken on Acquest, Analyst GT (Molecular Devices Corp.), Envision or Viewlux (Perkin Elmer) plate readers. […]
Fig. (8). Induction of CamK2δ activity. Transient transfection reactions were performed in 384-well plates as indicated. HEK 293 were reverse transfected with 50ng CamK2δ and 50ng (black bars) or 25ng (gray bars) cSTKpep-1. CamK2δ activity was induced through 5min ionomycin treatment (1µM) and p-cSTKpep-1 was quantified by TR-FRET.

Turning to `CNC(=O)c1cc(Oc2ccc(NC(=O)Nc3ccc(Cl)c(C(F)(F)F)c3)cc2)ccn1` [Bayer 43-9006], the IC50 in test [1] (48h) was found to be […].

T1 sequence (P15056 whole entry V600E): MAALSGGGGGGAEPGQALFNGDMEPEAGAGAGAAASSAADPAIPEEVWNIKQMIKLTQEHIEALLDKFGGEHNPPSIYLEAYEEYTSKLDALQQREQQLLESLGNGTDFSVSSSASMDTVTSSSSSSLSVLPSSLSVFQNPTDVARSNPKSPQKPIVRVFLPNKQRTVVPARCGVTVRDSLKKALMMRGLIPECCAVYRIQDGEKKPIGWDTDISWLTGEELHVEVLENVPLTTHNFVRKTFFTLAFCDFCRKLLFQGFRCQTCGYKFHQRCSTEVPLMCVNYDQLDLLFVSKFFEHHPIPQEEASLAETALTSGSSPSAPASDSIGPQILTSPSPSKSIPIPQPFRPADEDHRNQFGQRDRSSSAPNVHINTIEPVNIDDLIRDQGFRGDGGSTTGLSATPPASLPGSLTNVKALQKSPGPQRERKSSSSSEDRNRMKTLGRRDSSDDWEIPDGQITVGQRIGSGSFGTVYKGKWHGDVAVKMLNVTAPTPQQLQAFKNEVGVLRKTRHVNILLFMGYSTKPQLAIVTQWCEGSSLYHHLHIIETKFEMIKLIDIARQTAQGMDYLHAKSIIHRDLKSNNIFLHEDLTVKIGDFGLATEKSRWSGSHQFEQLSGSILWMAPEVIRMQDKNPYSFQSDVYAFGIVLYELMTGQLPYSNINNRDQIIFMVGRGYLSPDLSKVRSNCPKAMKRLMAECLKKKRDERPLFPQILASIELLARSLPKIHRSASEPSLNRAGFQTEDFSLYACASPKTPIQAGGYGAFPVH
T2 sequence (P31749 whole entry): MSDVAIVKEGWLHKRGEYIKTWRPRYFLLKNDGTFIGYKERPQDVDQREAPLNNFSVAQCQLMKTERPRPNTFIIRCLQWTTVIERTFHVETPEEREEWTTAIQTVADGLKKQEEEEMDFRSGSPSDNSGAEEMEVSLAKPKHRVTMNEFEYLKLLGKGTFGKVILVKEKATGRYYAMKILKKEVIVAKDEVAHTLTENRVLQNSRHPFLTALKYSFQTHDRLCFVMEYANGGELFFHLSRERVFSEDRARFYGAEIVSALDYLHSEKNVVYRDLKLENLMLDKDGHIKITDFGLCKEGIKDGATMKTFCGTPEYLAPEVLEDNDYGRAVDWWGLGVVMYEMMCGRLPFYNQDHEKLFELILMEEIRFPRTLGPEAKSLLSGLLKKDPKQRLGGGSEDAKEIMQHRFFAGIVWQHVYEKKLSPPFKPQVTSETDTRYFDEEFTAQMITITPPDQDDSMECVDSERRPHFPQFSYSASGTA

For the compound `O=c1cc(N2CCOCC2)oc2c(-c3ccccc3)cccc12` [LY294002, 2-(4-morpholinyl)-8-phenyl-4H-1-benzopyran-4-one], the IC50 on B-Raf(V600E) [2], on B-Raf(V600E) [3] and at B-Raf(V600E) [5] was greater than 33 µM in each case. Moreover, the “IC50 cSTKpep-3 384-well” value at B-Raf(V600E) [2] is given as “did not show any activity”. Further, the “observed potency (concentration range), cSTKpep-3 phosphorylation assay” value at AKT was “low micromolar”. Besides, the “IC50 MEK(WT) 384-well” value on B-Raf(V600E) [3] was “did not show any activity”. In test [4], the “observed potency (concentration range), AKT phosphorylation assay” value is listed as “low micromolar”.

Take `O=C(NOC[C@H](O)CO)c1ccc(F)c(F)c1Nc1ccc(I)cc1F` [PD0325901]: the “IC50 MEK(KD) 384-well” value at B-Raf(V600E) [5] is “inactive”. Moreover, the IC50 in test [1] (Mus musculus, BaF3, 48h) turned out to be […].

For the compound `CN[C@@H]1C[C@H]2O[C@@](C)([C@@H]1OC)n1c3ccccc3c3c4c(c5c6ccccc6n2c5c31)C(=O)NC4` [Staurosporine], the “factor between activity on p-AKT versus p-cSTKpep-3” value in test [4] (p-AKT IC50 versus p-cSTKpep-3 IC50) is recorded as ~ 100 fold.

In the case of `COC[C@H]1OC(=O)c2coc3c2[C@@]1(C)C1=C(C3=O)[C@@H]2CCC(=O)[C@@]2(C)C[C@H]1OC(C)=O` [Wortmannin], on B-Raf(V600E) [2], the IC50 was greater than 33 µM and the “IC50 cSTKpep-3 384-well” value is reported as “did not show any activity”. In addition, the “observed potency (concentration range), cSTKpep-3 phosphorylation assay” value at AKT is recorded as “low nanomolar”. Further, at B-Raf(V600E) [3], the IC50 was greater than 33 µM and the “IC50 MEK(WT) 384-well” value is “did not show any activity”. In addition, in test [4], the “observed potency (concentration range), AKT phosphorylation assay” value is given as “low nanomolar”. Also, the IC50 on B-Raf(V600E) [5] was greater than 33 µM.

For `C[C@H](CCC(=O)O)C[C@H](C)C[C@H](C)C(=O)/C=C(\O)[C@H](C)C[C@H](C)C/C=C/[C@@H](C)[C@@H](O)[C@@H](C)[C@@H](O)C[C@@H]1CC[C@@](C)([C@H]2CC[C@@](C)([C@@H](C)O)O2)O1` [ionomycin], the “induction of CamK2δ activity / cSTKpep-1 phosphorylation” value in the test with CamK2δ is reported as “ionomycin inducible”.

(Values after publication PMC2774688, “Cellular Ser/Thr-Kinase Assays Using Generic Peptide Substrates” (Current Chemical Genomics, 2008).)
